pIC50: −log10 of the molar value. Where a name gives a salt, the structure may show the parent alone.
Key:
Type in all cases: biochemical
LSD1 = LSD1 (Homo sapiens (Human), UniProt O60341); experiment: TR-FRET assay for LSD1 (Perkin Elmer)
Description: LSD1 enzyme was produced in house. Tranylcypromine (TCP), LSD1 inhibitor was procured from Selleckchem. LSD1 enzyme, TCP and Biotinylated peptide substrate were diluted in assay buffer just before use. 2× inhibitor (10 μL, diluted in assay buffer) or Assay Buffer, and 5 nM enzyme were added to a 96 well plate and incubated at room temperature for 30 min. […] Stop Solution containing 300 μM tranylcypromine in 1×LANCE Detection Buffer was added to the wells and incubated for 5 min at RT. Then, Detection mixture containing 2 nM Eu-Ab and 50 nM ULight-Streptavidin in 1×LANCE Detection Buffer was prepared and added to the reaction mixture. This mixture was incubated for 1 hour at room temperature.

HDAC6 = HDAC6 (Homo sapiens (Human), UniProt Q9UBN7); experiment: Histone deacetylase assay (BPS Biosciences), HDAC6; details: human recombinant enzyme
Sequence of HDAC6 (Q9UBN7 whole entry): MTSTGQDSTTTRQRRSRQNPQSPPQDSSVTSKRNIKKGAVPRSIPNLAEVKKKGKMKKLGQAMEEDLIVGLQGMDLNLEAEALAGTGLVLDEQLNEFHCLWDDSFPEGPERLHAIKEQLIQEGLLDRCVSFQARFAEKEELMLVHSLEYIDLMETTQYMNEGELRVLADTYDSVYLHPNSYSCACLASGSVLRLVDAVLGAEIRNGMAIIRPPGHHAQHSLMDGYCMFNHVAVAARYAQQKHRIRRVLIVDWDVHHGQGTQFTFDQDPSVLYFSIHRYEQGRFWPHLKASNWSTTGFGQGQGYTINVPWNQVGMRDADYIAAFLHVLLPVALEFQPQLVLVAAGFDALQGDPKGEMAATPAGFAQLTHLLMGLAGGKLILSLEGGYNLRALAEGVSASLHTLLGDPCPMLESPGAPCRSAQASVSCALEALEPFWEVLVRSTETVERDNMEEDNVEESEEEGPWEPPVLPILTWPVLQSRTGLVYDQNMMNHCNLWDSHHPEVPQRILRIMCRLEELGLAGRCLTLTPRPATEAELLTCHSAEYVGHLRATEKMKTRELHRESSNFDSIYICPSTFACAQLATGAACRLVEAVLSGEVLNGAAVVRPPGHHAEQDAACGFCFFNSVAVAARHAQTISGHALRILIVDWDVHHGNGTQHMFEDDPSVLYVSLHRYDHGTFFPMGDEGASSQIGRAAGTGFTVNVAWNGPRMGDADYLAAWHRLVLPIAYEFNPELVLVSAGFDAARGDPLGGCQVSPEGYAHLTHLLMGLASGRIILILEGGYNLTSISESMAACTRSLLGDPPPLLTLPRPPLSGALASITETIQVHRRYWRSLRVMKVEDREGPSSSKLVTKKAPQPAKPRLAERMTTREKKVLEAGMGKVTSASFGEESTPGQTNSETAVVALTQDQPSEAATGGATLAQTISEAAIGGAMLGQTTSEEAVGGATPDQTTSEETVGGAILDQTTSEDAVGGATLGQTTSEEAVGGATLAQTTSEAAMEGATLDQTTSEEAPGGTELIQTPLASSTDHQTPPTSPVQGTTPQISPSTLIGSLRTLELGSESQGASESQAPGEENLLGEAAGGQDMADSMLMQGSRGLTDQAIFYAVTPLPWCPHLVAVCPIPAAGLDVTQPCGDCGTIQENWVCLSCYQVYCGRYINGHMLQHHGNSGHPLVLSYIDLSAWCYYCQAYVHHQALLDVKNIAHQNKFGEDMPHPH
Description: Histone deacetylase assay was done as per manufacturer's instructions. […] Fluorescence was measured at an excitation wavelength of 350-380 nm and emission wavelength of 440-480 nm.

HDAC1 = HDAC1 (Homo sapiens (Human), UniProt Q13547); experiment: Histone deacetylase assay (BPS Biosciences), HDAC1; details: human recombinant enzyme
Sequence of HDAC1 (Q13547 whole entry): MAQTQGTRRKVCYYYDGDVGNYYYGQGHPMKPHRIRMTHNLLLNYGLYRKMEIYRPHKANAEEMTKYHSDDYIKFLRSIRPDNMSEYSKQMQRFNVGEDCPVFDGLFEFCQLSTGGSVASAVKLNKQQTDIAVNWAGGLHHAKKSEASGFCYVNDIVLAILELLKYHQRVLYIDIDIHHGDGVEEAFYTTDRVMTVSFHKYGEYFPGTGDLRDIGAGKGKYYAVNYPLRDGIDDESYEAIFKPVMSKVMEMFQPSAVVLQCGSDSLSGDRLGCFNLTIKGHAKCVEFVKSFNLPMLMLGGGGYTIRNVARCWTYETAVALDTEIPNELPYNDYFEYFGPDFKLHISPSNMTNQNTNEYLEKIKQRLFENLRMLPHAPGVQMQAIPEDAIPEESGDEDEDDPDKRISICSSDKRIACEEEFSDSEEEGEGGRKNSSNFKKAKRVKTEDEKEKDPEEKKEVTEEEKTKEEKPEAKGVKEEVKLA
Description: Histone deacetylase assay was done as per manufacturer's instructions. Briefly, assay buffer, 200 uM HDAC substrate (fluorogenic HDAC acetylated peptide substrate for class I HDACs (HDACs 1, 2 and 3) and class 2b HDACs (HDACs 6 and 10) and 1% BSA are taken as a master mixture and aliquoted as 40 uL per well. Compounds (10×) were diluted in assay buffer and were added to respective wells of a black 96 well plate. For HDAC1 (1.4 ng/μL) and for HDAC6 (7 ng/μL) human recombinant enzyme was thawed on ice and 5 μL of respective enzyme was added per well. The plate was incubated at 37° C. for 1 hour. Developer solution was then added (50 μL per well) and incubated at room temperature for 10 minutes. Fluorescence was measured at an excitation wavelength of 350-380 nm and emission wavelength of 440-480 nm.

pIC50 (LSD1)	pIC50 (HDAC6)	pIC50 (HDAC1)	SMILES
8.30	7.14	–	O=C(NO)c1ccc(CCCN2CCC(CN[C@H]3C[C@@H]3c3cnn(-c4ccccc4)c3)CC2)cc1 [Compound 4, N-hydroxy-4-(3-(4-((((1S,2R)-2-(1-phenyl-1H-pyrazol-4-yl)cyclopropyl)amino)methyl)piperidin-1-yl)propyl)benzamide]
7.54	–	–	Cc1noc(C)c1-c1ccc([C@H]2C[C@@H]2NCC2CCN(Cc3ccc(C(=O)Nc4ccccc4N)cc3)CC2)cc1 [Compound 28, N-(2-aminophenyl)-4-((4-((((1S,2R)-2-(4-(3,5-dimethylisoxazol-4-yl)phenyl)cyclopropyl)amino)methyl)piperidin-1-yl)methyl)benzamide]
8.05	7.06	–	O=C(NO)c1ccc(CCCN2CCC(CN[C@@H]3C[C@H]3c3cnn(-c4ccccc4)c3)CC2)cc1 [Compound 3, N-hydroxy-4-(3-(4-((((1R,2S)-2-(1-phenyl-1H-pyrazol-4-yl)cyclopropyl)amino)methyl)piperidin-1-yl)propyl)benzamide]
–	< 5.00	–	Nc1ccccc1NC(=O)c1ccc(CCCN2CCC(CN[C@H]3C[C@@H]3c3ccc(F)c(F)c3)CC2)cc1 [Compound 26, N-(2-aminophenyl)-4-(3-(4-((((1S,2R)-2-(3,4-difluorophenyl)cyclopropyl)amino)methyl)piperidin-1-yl)propyl)benzamide]
7.16	–	–	Nc1ccccc1NC(=O)c1ccc(Cn2cc(CN[C@@H]3C[C@H]3c3ccc(F)cc3)nn2)cc1 [Compound 21, N-(2-aminophenyl)-4-((4-((((1R,2S)-2-(4-fluorophenyl)cyclopropyl)amino)methyl)-1H-1,2,3-triazol-1-yl)methyl)benzamide]
7.51	7.08	–	O=C(NO)c1ccc(/C=C/C(=O)N2CC(CN[C@@H]3C[C@H]3c3ccc(F)cc3)C2)cc1 [Compound 5, 4-((E)-3-(3-((((1R,2S)-2-(4-fluorophenyl)cyclopropyl)amino)methyl)azetidin-1-yl)-3-oxoprop-1-en-1-yl)-N-hydroxybenzamide]
–	–	5.81	O=C(NO)c1ccc(Cn2cc(CN[C@H]3C[C@@H]3c3ccccc3)cn2)cc1 [Compound 2, N-hydroxy-4-((4-((((1S,2R)-2-phenylcyclopropyl)amino)methyl)-1H-pyrazol-1-yl)methyl)benzamide]
7.00	–	5.98	CC(C)n1cc([C@@H]2C[C@H]2NCC2CCN(CCCc3ccc(C(=O)Nc4ccccc4N)cc3)CC2)cn1 [Compound 17, N-(2-aminophenyl)-4-(3-(4-((((1R,2S)-2-(1-isopropyl-1H-pyrazol-4-yl)cyclopropyl)amino)methyl)piperidin-1-yl)propyl)benzamide]
6.17	–	–	Nc1ccccc1NC(=O)c1ccc(Cn2cc(CN[C@@H]3C[C@H]3c3ccccc3)nn2)cc1 [Compound 29, N-(2-aminophenyl)-4-((4-((((1R,2S)-2-phenylcyclopropyl)amino)methyl)-1H-1,2,3-triazol-1-yl)methyl)benzamide]
6.86	–	5.54	CC(C)n1cc([C@H]2C[C@@H]2NCC2CCN(CCCc3ccc(C(=O)Nc4ccccc4N)cc3)CC2)cn1 [Compound 18, N-(2-aminophenyl)-4-(3-(4-((((1S,2R)-2-(1-isopropyl-1H-pyrazol-4-yl)cyclopropyl)amino)methyl)piperidin-1-yl)propyl)benzamide]
–	–	5.11	Nc1ccccc1NC(=O)c1ccc(CCCN2CCC(CN[C@@H]3C[C@H]3c3ccc(F)cc3)CC2)cc1 [Compound 15, N-(2-aminophenyl)-4-(3-(4-((((1R,2S)-2-(4-fluorophenyl)cyclopropyl)amino)methyl)piperidin-1-yl)propyl)benzamide]
8.22	–	5.07	Nc1ccccc1NC(=O)c1ccc(CCCN2CCC(CN[C@H]3C[C@@H]3c3cnn(-c4ccccc4)c3)CC2)cc1 [Compound 24, N-(2-aminophenyl)-4-(3-(4-((((1S,2R)-2-(1-phenyl-1H-pyrazol-4-yl)cyclopropyl)amino)methyl)piperidin-1-yl)propyl)benzamide]
7.70	–	–	Cn1cc(-c2ccc([C@H]3C[C@@H]3NCC3CCN(Cc4ccc(C(=O)Nc5ccccc5N)cc4)CC3)cc2)ccc1=O [Compound 20, N-(2-aminophenyl)-4-((4-((((1S,2R)-2-(4-(1-methyl-6-oxo-1,6-dihydropvridin-3-yl)phenyl)cyclopropyl)amino)methyl)piperidin-1-yl)methyl)benzamide]
8.00	–	6.58	Nc1ccccc1NC(=O)c1ccc(CCCN2CCC(CN[C@@H]3C[C@H]3c3cnn(-c4ccccc4)c3)CC2)cc1 [Compound 23, N-(2-aminophenyl)-4-(3-(4-((((1R,2S)-2-(1-phenyl-1H-pyrazol-4-yl)cyclopropyl)amino)methyl)piperidin-1-yl)propyl)benzamide]
8.22	6.82	5.34	O=C(NO)c1ccc(CCCN2CCC(CN[C@@H]3C[C@H]3c3ccc(-c4cncnc4)cc3)CC2)cc1 [Compound 7, N-hydroxy-4-(3-(4-((((1R,2S)-2-(4-(pyrimidin-5-yl)phenyl)cyclopropyl)amino)methyl)piperidin-1-yl)propyl)benzamide]
8.10	6.80	5.61	O=C(NO)c1ccc(CCCN2CCC(CN[C@H]3C[C@@H]3c3ccc(-c4cncnc4)cc3)CC2)cc1 [Compound 8, N-hydroxy-4-(3-(4-((((1S,2R)-2-(4-(pyrimidin-5-yl)phenyl)cyclopropyl)amino)methyl)piperidin-1-yl)propyl)benzamide]
–	–	6.03	O=C(NO)c1ccc(Cn2cc(CN[C@@H]3C[C@H]3c3ccccc3)cn2)cc1 [Compound 1, N-hydroxy-4-((4-((((1R,2S)-2-phenylcyclopropyl)amino)methyl)-1H-pyrazol-1-yl)methyl)benzamide hydrobromide]
6.83	6.84	–	O=C(NO)c1ccc(/C=C/C(=O)N2CC(CN[C@H]3C[C@@H]3c3ccc(F)cc3)C2)cc1 [Compound 6, 4-((E)-3-(3-((((1S,2R)-2-(4-fluorophenyl)cyclopropyl)amino)methyl)azetidin-1-yl)-3-oxoprop-1-en-1-yl)-N-hydroxybenzamide]
6.07	–	–	Nc1ccccc1NC(=O)c1ccc(Cn2cc(CN[C@H]3C[C@@H]3c3ccc(F)cc3)nn2)cc1 [Compound 22, N-(2-aminophenyl)-4-((4-((((1S,2R)-2-(4-fluorophenyl)cyclopropyl)amino)methyl)-1H-1,2,3-triazol-1-yl)methyl)benzamide]
7.57	< 5.00	6.74	Nc1ccccc1NC(=O)c1ccc(Cn2cc(CN[C@@H]3C[C@H]3c3ccccc3)cn2)cc1 [Compound 30, N-(2-aminophenyl)-4-((4-((((1R,2S)-2-phenylcyclopropyl)amino)methyl)-1H-pyrazol-1-yl)methyl)benzamide]
6.39	6.72	–	CN1C(=O)C(C)(C)c2cc([C@@H]3C[C@H]3NCC3CCN(CCCc4ccc(C(=O)NO)cc4)CC3)ccc21 [Compound 9, N-hydroxy-4-(3-(4-((((1R,2S)-2-(1,3,3-trimethyl-2-oxoindolin-5-yl)cyclopropyl)amino)methyl)piperidin-1-yl)propyl)benzamide]
–	–	6.53	Nc1ccccc1NC(=O)c1ccc(CCCN2CCC(CN[C@H]3C[C@@H]3c3ccc(F)cc3)CC2)cc1 [Compound 16, N-(2-aminophenyl)-4-(3-(4-((((1S,2R)-2-(4-fluorophenyl)cyclopropyl)amino)methyl)piperidin-1-yl)propyl)benzamide]
8.22	–	–	Cn1cc(-c2ccc([C@@H]3C[C@H]3NCC3CCN(Cc4ccc(C(=O)Nc5ccccc5N)cc4)CC3)cc2)ccc1=O [Compound 19, N-(2-aminophenyl)-4-((4-((((1R,2S)-2-(4-(1-methyl-6-oxo-1,6-dihydropyridin-3-yl)phenyl)cyclopropyl)amino)methyl)piperidin-1-yl)methyl)benzamide]
8.22	–	–	Cc1noc(C)c1-c1ccc([C@@H]2C[C@H]2NCC2CCN(Cc3ccc(C(=O)Nc4ccccc4N)cc3)CC2)cc1 [Compound 27, N-(2-aminophenyl)-4-((4-((((1R,2S)-2-(4-(3,5-dimethylisoxazol-4-yl)phenyl)cyclopropyl)amino)methyl)piperidin-1-yl)methyl)benzamide]
5.92	6.87	–	CN1C(=O)C(C)(C)c2cc([C@H]3C[C@@H]3NCC3CCN(CCCc4ccc(C(=O)NO)cc4)CC3)ccc21 [Compound 10, N-hydroxy-4-(3-(4-((((1S,2R)-2-(1,3,3-trimethyl-2-oxoindolin-5-yl)cyclopropyl)amino)methyl)piperidin-1-yl)propyl)benzamide]

Source: patent publication US20250162994A1, “DUAL LSD1/HDAC INHIBITORS” (JUBILANT EPICORE LLC, priority 2022, published 2025)
